Measurements: PubChem BioAssay (NCI)
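Tested at 5 concentrations; 48 h exposure; 96-well plates; endpoints linearly interpolated, else capped at highest concentration. Definition used: TGI = concentration required for complete inhibition of growth.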

Experiments:
Assay in all cases: growth of human tumour cells (NCI), 48 h
EKVX NSCLC = test system: EKVX NSCLC
U251 CNS = test system: U251 CNS
HT29 colon = test system: HT29 colon
MCF7 breast = test system: MCF7 breast
NCI-H460 lung = test system: NCI-H460 lung
KM12 colon = test system: KM12 colon
UACC-257 melanoma = test system: UACC-257 melanoma
HCT-116 colon = test system: HCT-116 colon
UACC-62 melanoma = test system: UACC-62 melanoma
HOP-92 NSCLC = test system: HOP-92 NSCLC
MDA-MB-435 = test system: MDA-MB-435
CCRF-CEM leukemia = test system: CCRF-CEM leukemia
NCI/ADR-RES ovarian = test system: NCI/ADR-RES ovarian
NCI-H23 lung = test system: NCI-H23 lung
SF-539 CNS = test system: SF-539 CNS
UO-31 renal = test system: UO-31 renal
OVCAR-4 ovarian = test system: OVCAR-4 ovarian
HOP-62 NSCLC = test system: HOP-62 NSCLC
HCT-15 colon = test system: HCT-15 colon
SK-MEL-28 melanoma = test system: SK-MEL-28 melanoma
HCC-2998 colon = test system: HCC-2998 colon
MALME-3M melanoma = test system: MALME-3M melanoma
LOX IMVI melanoma = test system: LOX IMVI melanoma
PC-3 prostate = test system: PC-3 prostate
DU-145 prostate = test system: DU-145 prostate
NCI-H522 lung = test system: NCI-H522 lung
SW-620 colon = test system: SW-620 colon
OVCAR-8 ovarian = test system: OVCAR-8 ovarian
IGROV1 ovarian = test system: IGROV1 ovarian
K-562 leukemia = test system: K-562 leukemia
SF-295 CNS = test system: SF-295 CNS
RPMI-8226 leukemia = test system: RPMI-8226 leukemia
OVCAR-5 ovarian = test system: OVCAR-5 ovarian
CAKI-1 renal = test system: CAKI-1 renal
MDA-MB-231 breast = test system: MDA-MB-231 breast
RXF 393 renal = test system: RXF 393 renal
ACHN renal = test system: ACHN renal
A549 NSCLC = test system: A549 NSCLC
M14 melanoma = test system: M14 melanoma
TK-10 renal = test system: TK-10 renal
SK-MEL-2 melanoma = test system: SK-MEL-2 melanoma
786-0 renal = test system: 786-0 renal
SN12C renal = test system: SN12C renal
SK-MEL-5 melanoma = test system: SK-MEL-5 melanoma
SF-268 CNS = test system: SF-268 CNS
A498 renal = test system: A498 renal
OVCAR-3 ovarian = test system: OVCAR-3 ovarian
BT-549 breast = test system: BT-549 breast
HS 578T breast = test system: HS 578T breast
NCI-H226 lung = test system: NCI-H226 lung

COc1ccc(OC)c([N+](=O)[O-])c1-c1nc2sc(C)cn2c1/C=N/N=C(N)N
TGI (EKVX NSCLC): > 100 µM
TGI (U251 CNS): > 100 µM
TGI (HT29 colon): 50.1 µM
TGI (MCF7 breast): > 100 µM
TGI (NCI-H460 lung): > 100 µM
TGI (KM12 colon): 72.9 µM
TGI (UACC-257 melanoma): 47 µM
TGI (HCT-116 colon): > 100 µM
TGI (UACC-62 melanoma): 69.3 µM
TGI (HOP-92 NSCLC): 47.8 µM
TGI (MDA-MB-435): 56.7 µM
TGI (CCRF-CEM leukemia): > 100 µM
TGI (NCI/ADR-RES ovarian): > 100 µM
TGI (NCI-H23 lung): 66 µM
TGI (SF-539 CNS): > 100 µM
TGI (UO-31 renal): > 100 µM
TGI (OVCAR-4 ovarian): 47.3 µM
TGI (HOP-62 NSCLC): > 100 µM
TGI (HCT-15 colon): > 100 µM
TGI (SK-MEL-28 melanoma): 43.5 µM
TGI (HCC-2998 colon): 60.3 µM
TGI (MALME-3M melanoma): 44.3 µM
TGI (LOX IMVI melanoma): > 100 µM
TGI (PC-3 prostate): > 100 µM
TGI (DU-145 prostate): > 100 µM
TGI (NCI-H522 lung): 46.5 µM
TGI (SW-620 colon): > 100 µM
TGI (OVCAR-8 ovarian): 76.8 µM
TGI (IGROV1 ovarian): 33 µM
TGI (K-562 leukemia): 28.7 µM
TGI (SF-295 CNS): 57.1 µM
TGI (RPMI-8226 leukemia): > 100 µM
TGI (OVCAR-5 ovarian): > 100 µM
TGI (CAKI-1 renal): 84.1 µM
TGI (MDA-MB-231 breast): 84.4 µM
TGI (RXF 393 renal): 76.1 µM
TGI (ACHN renal): > 100 µM
TGI (A549 NSCLC): > 100 µM
TGI (M14 melanoma): > 100 µM
TGI (TK-10 renal): 43.3 µM
TGI (SK-MEL-2 melanoma): 60.2 µM
TGI (786-0 renal): > 100 µM
TGI (SN12C renal): 90.1 µM
TGI (SK-MEL-5 melanoma): 49.9 µM
TGI (SF-268 CNS): > 100 µM
TGI (A498 renal): 78 µM
TGI (OVCAR-3 ovarian): 85.6 µM
TGI (BT-549 breast): 41.9 µM
TGI (HS 578T breast): 97.9 µM
TGI (NCI-H226 lung): 92.7 µM
